Laboratory results published in PubChem BioAssay (NCI).
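The compound was tested at five concentrations on cells cultured in 96-well plates, with a 48-hour exposure period. TGI is the concentration that stops growth completely.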

How the values were obtained:
Experiment in all cases: NCI anticancer screen, dose series, 48 h
[1] = tested on: OVCAR-4 ovarian
[2] = tested on: MDA-N
[3] = tested on: HS 578T breast
[4] = tested on: MALME-3M melanoma
[5] = tested on: EKVX NSCLC
[6] = tested on: SK-MEL-28 melanoma
[7] = tested on: ACHN renal
[8] = tested on: RXF 393 renal
[9] = tested on: IGROV1 ovarian
[10] = tested on: HCT-15 colon
[11] = tested on: SK-MEL-5 melanoma
[12] = tested on: SF-268 CNS
[13] = tested on: NCI-H522 lung
[14] = tested on: K-562 leukemia
[15] = tested on: RPMI-8226 leukemia
[16] = tested on: MOLT-4 leukemia
[17] = tested on: UACC-62 melanoma
[18] = tested on: NCI-H460 lung

Row | Compound | TGI [1] [µM] | TGI [2] [µM] | TGI [3] [µM] | TGI [4] [µM] | TGI [5] [µM] | TGI [6] [µM] | TGI [7] [µM] | TGI [8] [µM] | TGI [9] [µM] | TGI [10] [µM] | TGI [11] [µM] | TGI [12] [µM] | TGI [13] [µM] | TGI [14] [µM] | TGI [15] [µM] | TGI [16] [µM] | TGI [17] [µM] | TGI [18] [µM]
1 | CCOC(=O)/C=C1\c2ccccc2C(=O)N1CC(=O)OCC | > 100 | > 100 | > 100 | > 100 | > 100 | > 100 | > 100 | > 100 | > 100 | > 100 | > 100 | > 100 | > 100 | > 100 | > 100 | > 100 | > 100 | –
2 | CCc1c(Cc2cc(C)cc(C)c2)n2c(nc1=O)SCC2CBr (stereo not drawn) | > 50 | > 50 | > 50 | > 50 | > 50 | > 50 | > 50 | > 50 | > 50 | > 50 | > 50 | > 50 | > 50 | > 50 | > 50 | > 50 | > 50 | > 50
3 | COC(=O)c1ccccc1/C=C1\Cc2cc(C)c(C)cc2C1=O | > 100 | > 100 | > 100 | > 100 | > 100 | > 100 | > 100 | > 100 | > 100 | > 100 | > 100 | > 100 | > 100 | > 100 | > 100 | > 100 | > 100 | > 100
4 | Cc1ccc(/C=C/C(=O)c2cc(CN(C)C)c(O)c(CN(C)C)c2)cc1 | – | 42.5 | 86.7 | 35.6 | > 100 | 33.6 | 90.8 | 55 | > 100 | 45.4 | 30.6 | > 100 | 31.7 | 43.9 | 48.3 | 57.2 | – | 26.1
5 | COC(=O)[C@@H]1C[C@@H]2c3ccccc3N(S(=O)(=O)c3ccccc3)[C@@H]2N1C(=O)OC | > 100 | > 100 | > 100 | > 100 | > 100 | > 100 | > 100 | > 100 | > 100 | > 100 | > 100 | > 100 | > 100 | > 100 | > 100 | > 100 | > 100 | > 100
6 | C/C=C/C(=O)N1C(=O)OC[C@@H]1c1ccccc1 | 45.3 | 43.8 | 76.2 | 39.7 | 35 | 45.5 | 33.5 | 37.2 | 37.1 | 53.8 | 38.4 | 44.1 | 39.1 | 56 | 50 | 47.3 | – | –
7 | OC1CN2Cc3cc4c(cc3[C@]13C=C[C@@H](O)CC23)OCO4 (stereo partly drawn) | > 100 | > 100 | > 100 | > 100 | 94.5 | > 100 | > 100 | 58.6 | > 100 | > 100 | > 100 | > 100 | > 100 | > 100 | > 100 | > 100 | > 100 | 45.6
8 | O=C(O)c1ccccc1/C=N/NC1=NCCCCN1 | > 100 | > 100 | > 100 | > 100 | > 100 | > 100 | > 100 | > 100 | > 100 | > 100 | > 100 | > 100 | > 100 | > 100 | > 100 | > 100 | > 100 | > 100
9 | O=C(NC(Nc1ccc(F)c(Cl)c1)(C(F)(F)F)C(F)(F)F)OCc1ccccc1 | – | 56.2 | > 100 | > 100 | 83.6 | > 100 | > 100 | > 100 | > 100 | 94.5 | > 100 | > 100 | 42.1 | > 100 | 61.4 | 89.1 | > 100 | > 100
10 | O=C(c1ccccc1)c1sc2c(=O)c(C(=O)c3ccccc3)c(C(=O)c3ccccc3)sc2c(=O)c1C(=O)c1ccccc1 | > 100 | > 100 | > 100 | > 100 | > 100 | > 100 | > 100 | 72.3 | 69.2 | > 100 | > 100 | > 100 | 38.6 | > 100 | – | > 100 | > 100 | > 100
